# Laboratory results from patent US20170105647A1, “SYSTEMS AND METHODS FOR IDENTIFYING NEUROBIOLOGICAL BIOMARKERS USING EEG” (Children's Medical Center Corporation, priority 2014, published 2017).
# “And” between values parts separate entries of the source, which are not always exact repeats. Equal entries are not always repeated.
# Assays:
# Assay type in all cases: in vivo, human
# [1] = test system: children with regressive autism (R-ASD), STAR group; assay: Subjective evaluation of EEG abnormality, change from first to second study
# Source text: Subjective Evaluation of EEG Abnormality: All first and second EEG studies were visually reassessed by a pediatric electroencephalographer blinded to subject history and group identity. All EEGs were reviewed in randomly selected order with respect to group and study order. Each EEG was scored as showing in ascending order of abnormality (if present): paroxysmal sharp theta, sharp waves, and spike or spike wave discharges. After this “blinded” estimation was completed, EEG results were sorted into first and second EEG study order, without group identity; subsequently the electroencephalographer compared each subject's two sequential EEGs and classified their scores as showing “worsening”, “no change”, or “improvement” between the first and second study.
# [2] = test system: children with regressive autism (R-ASD), STAR group; assay: Clinical Language Status Questionnaire (CLSQ) language assessment
# Source text: Language Assessment, STAR Group: STAR group subjects were followed by their child neurologists using a clinical language assessment, referred to as the “Clinical Language Status Questionnaire (CLSQ)” which was developed in-house well prior to the current study. It is as yet unpublished. The assessment was designed to assist pediatric neurologists involved in the pharmacological treatment of neurological disorders, in estimating language progress or lack thereof—from a child's parent(s)' report and the clinician's direct assessment at the time of a clinical visit. It involves evaluation of both the child's current best expressive and receptive language performance. In the current study, documentation of lack of response improvement or plateau, along with assessment of medical complication(s), constituted the primary evidence used for treatment discontinuation. […] The term “Appears normal” (Table 1) was defined as the clinician's and family's report of normal, age-appropriate speech. None of the children in this study received this score. “Appears nearly normal” was defined as context and age appropriate speech with evidence of mispronunciations, poor or odd word choice, unusual fluency or unusually sparseness, unusual grammatical errors such as errors in tense, pronoun gender match and/or pluralization, and/or requirement of adult speech simplification in order to assure comprehension relative to age expectancy. The difference between “short meaningful 1-2 word phrases” and “meaningful 3+ word phrases” is self-explanatory. Although many well developed language tests exist, as documented by the American Speech-Language-Hearing Association (www.asha.org/assessments.aspx), most tend to be detailed yet too coarsely grained to capture this population's limited language range. They are also typically too time-consuming for repeated administration by neurologists during recurring, clinical check-in visits. In contrast, the CLSQ may be completed in less than ten minutes. An additional advantage of the CLSQ for the current study was its comprehensiveness in capturing the full—while limited—range of language change observed in this patient population. Parents are shown short phrases (without the numerical scores) and asked to identify their child's current relevant expressive and receptive status. The neurologist stands by to clarify, assist, and help resolve two caregivers' divergent opinions. Neurologists using the CLSQ are sensitive to the language performance definitions in question. The study subjects' CLSQ score assignments occurred without prior knowledge of the current study.
# [3] = test system: children with regressive autism (R-ASD), STAR group; assay: 4 Hz frequency modulated auditory evoked response (FMAER), before vs after steroid treatment; details: for Mean Diff. (mean of pre to post difference of 4 Hz FMAER spectral power): STAR group n = 20, oral 2 mg/kg/day
# Source text: In this example, subjects with regressive autism were utilized to determine whether application of a corticosteroid would improve language function and show an improved 4 Hz FMAER. […] A pharmacologically untreated clinical convenience sample of children with ASD served as controls.
# Steroid Treated Autism with Regression (STAR): The target group of study subjects was limited to children aged 3-5 years old, diagnosed as having autism with a historically documented period of regression at onset. Regression was defined as the loss of age appropriate language, communication, cognitive ability, and behavior determined by the referring physician and confirmed by the treating neurologist. Patients with a slowly developing plateau or a very slow regression over a prolonged period of time, as opposed to an abrupt regression, were not included in the STAR group.
# Steroid Treatment STAR Patients: Oral prednisolone (Prelone™ or Orapred™) was administered by the parents on a daily basis at 2 mg/kg/day. Dosage was occasionally down-adjusted on the basis of minor complications.
# All subjects' electrophysiological data utilized in this study were gathered from 30 scalp channels via gold cup electrodes applied with collodion after careful measurement. A 31st channel carried the FMAER trial marker. A 32nd channel carried eye movement and blink artifact information. Data were digitized at 256 Hz after amplification by a Cardionics™ 32 channel EEG amplifier (Cardionics Inc. 910 Baystar Blvd, Webster, Tex. 77598 USA) set to 1-100 Hz pass band. The 30 EEG scalp channels used included the following: FP1, FP2, F7, F3, FZ, F4, F8, FC5, FC1, FC2, FC6, T7, C3, CZ, C4, T8, CP5, CP1, CP2, CP6, P7, P3, PZ, P4, P8, O1, OZ, O2, TP9, and TP10 [28]. Data for the FMAER were gathered over 5-20 minutes with additional time allowed for rest breaks as indicated. The patient and a parent, when behaviorally indicated, were together within view of the technologist through a one-way mirror window in a sound-shielded room, adjacent to the recording equipment. Off-line, the EEG data and accompanying trial markers were visually evaluated and epochs containing excessive eye-blink, muscle and movement artifact were marked for removal from subsequent analysis. All 30 channel data were visually inspected for EEG abnormalities and for creating the common average reference. For the current study, FMAER analysis was restricted to 14 active scalp electrodes: F7, F8, T7, T8, P7, P8, TP9, TP10, F3, F4, C3, C4, P3, and P4.
# Frequency Modulated Auditory Evoked Response (FMAER): Language comprehension requires decoding of rapidly changing speech streams; detection of FM within speech has been hypothesized as essential for accurate phoneme detection and word comprehension. The FMAER was developed as a steady-state EP to assess the brain's response to rapid changes in the frequency modulation (FM) of an applied auditory stimulus in extension of and based upon the pioneering work of Green, Stefanatos and others. […] Midline frontal electrodes (FZ, FC1, FC2) usually manifest bilateral overlapping source dipole projection. […] The FMAER may be normal, or as in pathology, of low amplitude, distorted, or absent. In rare cases of pathology the FMAER source location may be outside the usual STG location and/or the source dipole may point in unexpected directions..
# As previously detailed, the FMAER was formed from a carrier sine wave at 1000 Hz frequency modulated by a slower 10 Hz sine wave causing the frequency of the carrier wave to shift (“deviate”) between […] at the 10 Hz rate, producing a warbling tone. The 10 Hz sine wave was then amplitude modulated by a slower 4 Hz sine wave such that the warbling (FM modulation) was sinusoidally turned on and off (AM modulated) at the 4 Hz rate. This process caused the 10 Hz “warbling” of the 1000 Hz sine wave carrier to be sinusoidally turned fully on and off (100% modulation) at 4 Hz. […]
# [4] = test system: children with regressive autism (R-ASD), STAR group; assay: DSM-IV criteria for Autistic Disorder, scaled behavioral score
# Source text: Behavioral Assessment: The DSM-IV criteria for Autistic Disorder (299.0), aside from employment for diagnosis, were scaled in terms of severity for each STAR group child and the sum of the scaled scores was assigned as behavioral score. The direction of scaling was defined such that the higher the score was, the more severe the behavioral manifestations of ASD were. The symptom items and scaling are described in Table 2. […] Summed scaled item scores were assigned in order to quantify behavioral change in analogy to language change. For the current study scores were selected for the office visit nearest to the first and the second EEG/FMAER studies respectively. Scorers had no knowledge of the current study's goals or design, the future group status of subjects, or the subjects' FMAER results. The NSA group subjects lacked the DSM-IV based behavior scores.
# [5] = STAR group n = 20, blinded visual EEG rating
# [6] = STAR group n = 20, pre- to post-treatment, CLSQ scale 0-10
smiles,measurement,setting,value
C[C@]12C=CC(=O)C=C1CC[C@@H]1[C@@H]2[C@@H](O)C[C@@]2(C)[C@H]1CC[C@]2(O)C(=O)CO [prednisolone],EEG change Time 1 to Time 2: number of subjects Improved,[1]; [5],3
same,EEG change Time 1 to Time 2: number of subjects No Change,[1]; [5],10
same,EEG change Time 1 to Time 2: number of subjects Worse,[1]; [5],7
same,Steroid effect on EEG abnormalities by visual inspection,"[1]; STAR vs NSA, Fisher's exact test n.s.",little evidence for a physiologically meaningful steroid effect on EEG
same,Expressive Language change Time 1 to Time 2: number of subjects Better,[2]; STAR group n = 20,17
same,Expressive Language change Time 1 to Time 2: number of subjects NoDiff,[2]; STAR group n = 20,2
same,Expressive Language change Time 1 to Time 2: number of subjects Worse,[2]; STAR group n = 20,1
same,Receptive Language change Time 1 to Time 2: number of subjects Better,[2]; STAR group n = 20,17
same,Receptive Language change Time 1 to Time 2: number of subjects NoDiff,[2]; STAR group n = 20,3
same,Receptive Language change Time 1 to Time 2: number of subjects Worse,[2]; STAR group n = 20,0
same,"Mean Diff. of CLSQ score, Time 1 to Time 2, Expressive language",[2]; [6],4.10
same,"Mean Diff. of CLSQ score, Time 1 to Time 2, Receptive language",[2]; [6],4.80
same,STAR group subjects showing improvement in language ratings,"[2]; receptive and expressive, study 1 to study 2",17/20
same,Electrode measurements of the FMAER 4 Hz response with significant change before vs after steroid therapy,"[3]; STAR group, matched-paired t-test, 14 electrodes",nine of 14 and 9 of 14
same,FMAER response distortion (spectral spread) after steroid treatment,"[3]; all STAR subjects, FFT of FMAER",reduction of distortion
same,Mean Diff. (mean of pre to post difference of 4 Hz FMAER spectral power),[3]; electrode C3,24.15 μV^2/Hz
same,Mean Diff. (mean of pre to post difference of 4 Hz FMAER spectral power),[3]; electrode C4,22.66 μV^2/Hz
same,Mean Diff. (mean of pre to post difference of 4 Hz FMAER spectral power),"[3]; electrode F3, mean 9.125 months",47.18 μV^2/Hz
same,Mean Diff. (mean of pre to post difference of 4 Hz FMAER spectral power),[3]; electrode F4,64.31 μV^2/Hz
same,Mean Diff. (mean of pre to post difference of 4 Hz FMAER spectral power),[3]; electrode F7,3.38 μV^2/Hz
same,Mean Diff. (mean of pre to post difference of 4 Hz FMAER spectral power),[3]; electrode F8,18.47 μV^2/Hz
same,Mean Diff. (mean of pre to post difference of 4 Hz FMAER spectral power),[3]; electrode P3,10.49 μV^2/Hz
same,Mean Diff. (mean of pre to post difference of 4 Hz FMAER spectral power),[3]; electrode P4,10.52 μV^2/Hz
same,Mean Diff. (mean of pre to post difference of 4 Hz FMAER spectral power),[3]; electrode P7,65.08 μV^2/Hz
same,Mean Diff. (mean of pre to post difference of 4 Hz FMAER spectral power),[3]; electrode P8,77.83 μV^2/Hz
same,Mean Diff. (mean of pre to post difference of 4 Hz FMAER spectral power),[3]; electrode T7,15.49 μV^2/Hz
same,Mean Diff. (mean of pre to post difference of 4 Hz FMAER spectral power),[3]; electrode T8,30.60 μV^2/Hz
same,Mean Diff. (mean of pre to post difference of 4 Hz FMAER spectral power),[3]; electrode TP9,56.91 μV^2/Hz
same,Mean Diff. (mean of pre to post difference of 4 Hz FMAER spectral power),[3]; electrode TP10,83.49 μV^2/Hz
same,"Average DSM-IV Score (mean of 14 scored items, 0-3 each)",[4]; After treatment,0.9857
same,"Average DSM-IV Score (mean of 14 scored items, 0-3 each)",[4]; Before treatment (baseline),2.0677
same,Scaled DSM-IV symptom summary scores after steroid treatment,[4]; p≦0.00001,highly significant improvement
